From US20250353912A1, “COMPOSITIONS AND METHODS COMPRISING ANTIBODIES THAT BIND TO COVALENT PEPTIDE CONJUGATES” (New York University, priority 2022, published 2025)

Tests used:
[1] = cited from earlier work
H2122 cells = assay: Cell viability following exposure to sotorasib for 72 hr; assay type: cell-based; settings: FIG. 43A
H358 cells = assay: as above; assay type: cell-based; settings: 0.1 μM sotorasib, FIG. 43A
[2] = second line disease, versus docetaxel

## C=CC(=O)N1CCN(c2nc(=O)n(-c3c(C)ccnc3C(C)C)c3nc(-c4c(O)cccc4F)c(F)cc23)[C@@H](C)C1 [sotorasib]
[1]; in vivo
  patients removed from the study because of liver toxicity: six patients
  patients with drug-induced liver injury: two patients
  patients with grade 3/4 liver toxicity: 10%
[1]; [2]
  overall survival: no impact
  progression-free survival: improved by one month
H2122 cells
  sotorasib concentration up to which H2122 is resistant: ~10 µM
H358 cells
  killing of H358 cells: nearly all of the H358 cells were killed
